From patent publication US8546381B2, “Bridged heterocyclic compounds and methods of use” (Medivation Technologies, Inc., priority 2008, dated 2013)

Columns and labels:
[1] = tested on: rat central imidazoline I2 receptor; assay: Central imidazoline I2 radioligand binding ([3H]Idazoxan); details: compound at 1 μM; inhibition of specific [3H]Idazoxan binding
Method: To evaluate in radioligand binding assays the activity of compounds of the invention, rat central imidazoline I2 receptor obtained from Wistar Rat cerebral cortex (Brown, C. M. et al., Br. J. Pharmacol. 99:803, 1990) in a modified Tris-HCl buffer (50 mM Tris-HCl buffer, pH 7.4, 0.5 mM EDTA) was used. Compounds of the invention were incubated with 2 nM [^3H]Idazoxan for 30 minutes at 25° C. Non-specific binding was estimated in the presence of 1 μM Idazoxan. Receptor proteins were filtered and washed, the filters were then counted to determine [^3H]Idazoxan specifically bound. Compounds were screened at 1 μM or lower, using 1% DMSO as vehicle. Compounds of the invention were tested in this biochemical assay and percent inhibition of specific binding was determined.

[2] = molecular target: T1, human recombinant serotonin (5-Hydroxytryptamine) 5-HT2B receptor (Homo sapiens, UniProt P41595); assay: Serotonin 5-HT2B radioligand binding ([3H]LSD); details: for inhibition at 1 µM: read-out: Serotonin 5-HT2B, inhibition of ligand binding (1 μM)
T1 construct: expressed in transfected cells; host or cells: CHO-K1 cells
T1 sequence (P41595 whole entry): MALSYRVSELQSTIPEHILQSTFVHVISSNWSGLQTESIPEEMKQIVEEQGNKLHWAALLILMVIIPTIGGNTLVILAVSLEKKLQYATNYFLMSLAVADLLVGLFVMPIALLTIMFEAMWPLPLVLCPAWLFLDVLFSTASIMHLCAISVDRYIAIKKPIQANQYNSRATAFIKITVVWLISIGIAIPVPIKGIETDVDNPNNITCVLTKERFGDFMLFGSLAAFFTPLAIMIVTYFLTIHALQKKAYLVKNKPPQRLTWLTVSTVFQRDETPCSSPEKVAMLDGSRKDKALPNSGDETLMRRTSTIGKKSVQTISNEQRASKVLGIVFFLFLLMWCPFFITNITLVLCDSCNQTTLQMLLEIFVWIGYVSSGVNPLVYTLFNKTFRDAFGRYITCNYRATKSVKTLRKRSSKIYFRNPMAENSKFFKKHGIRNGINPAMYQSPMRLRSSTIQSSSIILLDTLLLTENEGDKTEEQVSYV
Method: To evaluate in radioligand binding assays the activity of compounds of the invention, human recombinant serotonin (5-Hydroxytryptamine) 5-HT2B receptor expressed in Chinese hamster ovary (CHO-K1) cells (Bonhaus, D. W. et al., Br. J. Pharmacol. 115:622, 1995) in a modified Tris-HCl buffer (50 mM Tris-HCl, pH 7.4, 4 mM CaCl2, 0.1% Ascorbic Acid) was used. Compounds of invention were incubated with 1.2 nM [^3H]Lysergic acid diethylamide (LSD) for 60 minutes at 37° C. Non-specific binding was estimated in the presence of 10 μM Serotonin (5-HT). Receptor proteins were filtered and washed, the filters were then counted to determine [^3H]LSD specifically bound. Compounds were screened at 1 μM or lower, using 1% DMSO as vehicle. Compounds of the invention were tested in this biochemical assay and percent inhibition of specific binding was determined. Biochemical assay results are presented as the percent inhibition of specific binding in Table 4.

[3] = molecular target: T2, human recombinant serotonin (5-Hydroxytryptamine) 5-HT5A receptor (Homo sapiens, UniProt P47898); assay: Serotonin 5-HT5A radioligand binding ([3H]LSD); details: read-out: Serotonin 5-HT5A, inhibition of ligand binding (1 μM)
T2 construct: expressed in transfected cells; host or cells: CHO-K1 cells
T2 sequence (P47898 whole entry): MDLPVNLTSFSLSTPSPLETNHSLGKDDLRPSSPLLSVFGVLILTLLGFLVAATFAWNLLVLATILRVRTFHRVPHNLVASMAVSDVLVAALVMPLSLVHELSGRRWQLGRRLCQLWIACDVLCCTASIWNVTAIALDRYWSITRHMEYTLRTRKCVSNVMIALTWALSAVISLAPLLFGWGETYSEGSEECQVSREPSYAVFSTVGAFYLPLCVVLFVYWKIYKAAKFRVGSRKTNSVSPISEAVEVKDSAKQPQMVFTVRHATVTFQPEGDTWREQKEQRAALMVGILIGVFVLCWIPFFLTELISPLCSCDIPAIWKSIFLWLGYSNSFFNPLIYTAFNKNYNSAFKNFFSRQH
Method: To evaluate in radioligand binding assays the activity of compounds of the invention, human recombinant serotonin (5-Hydroxytryptamine) 5-HT5A receptor expressed in Chinese hamster ovary (CHO-K1) cells (Rees, S. et al., FEBS Lett. 355:242, 1994) in a modified Tris-HCl buffer (50 mM Tris-HCl, pH 7.4, 10 mM MgCl2, 0.5 mM EDTA) was used. Compounds of the invention were incubated with 1.7 nM [^3H]Lysergic acid diethylamide (LSD) for 60 minutes at 37° C. Non-specific binding was estimated in the presence of 100 μM Serotonin (5-HT). Receptor proteins were filtered and washed, the filters were then counted to determine [^3H]LSD specifically bound. Compounds were screened at 1 μM or lower, using 1% DMSO as vehicle. Compounds of the invention were tested in this biochemical assay and percent inhibition of specific binding was determined. Biochemical assay results are presented as the percent inhibition of specific binding in Table 4.

[4] = molecular target: T3, human recombinant serotonin (5-Hydroxytryptamine) 5-HT6 receptor (Homo sapiens, UniProt P50406); assay: Serotonin 5-HT6 radioligand binding ([3H]LSD); details: read-out: Serotonin 5-HT6, inhibition of ligand binding (1 μM)
T3 construct: expressed in transfected cells; host or cells: human HeLa cells
T3 sequence (P50406 whole entry): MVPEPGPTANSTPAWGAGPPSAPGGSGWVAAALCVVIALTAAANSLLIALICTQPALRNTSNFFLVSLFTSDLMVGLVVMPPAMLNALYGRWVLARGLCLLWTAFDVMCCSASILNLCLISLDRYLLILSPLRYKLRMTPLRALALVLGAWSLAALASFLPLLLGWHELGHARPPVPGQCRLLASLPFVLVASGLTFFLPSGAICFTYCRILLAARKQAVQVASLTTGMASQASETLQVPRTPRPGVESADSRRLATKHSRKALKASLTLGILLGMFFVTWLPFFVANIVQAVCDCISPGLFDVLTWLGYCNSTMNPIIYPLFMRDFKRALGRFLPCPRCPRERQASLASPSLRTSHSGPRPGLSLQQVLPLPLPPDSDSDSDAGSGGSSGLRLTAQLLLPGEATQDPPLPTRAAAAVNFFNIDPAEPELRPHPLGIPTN
Method: To evaluate in radioligand binding assays the activity of compounds of the invention, human recombinant serotonin (5-Hydroxytryptamine) 5-HT6 receptor expressed in human HeLa cells (Monsma, F. J. Jr. et al., Mol. Pharmacol. 43:320, 1993) in a modified Tris-HCl buffer (50 mM Tris-HCl, pH 7.4, 150 mM NaCl, 2 mM Ascorbic Acid, 0.001% BSA) was used. Compounds of the invention were incubated with 1.5 nM [3H]Lysergic acid diethylamide (LSD) for 120 minutes at 37° C. Non-specific binding was estimated in the presence of 5 μM Serotonin (5-HT). Receptor proteins were filtered and washed, the filters were then counted to determine [3H]LSD specifically bound. Compounds were screened at 1 μM or lower, using 1% DMSO as vehicle. Biochemical assay results are presented as the percent inhibition of specific binding in Table 4.

[5] = molecular target: T4, human recombinant serotonin (5-Hydroxytryptamine) 5-HT7 receptor (Homo sapiens, UniProt P34969); assay: Serotonin 5-HT7 radioligand binding ([3H]LSD); details: for inhibition at 1 µM: read-out: Serotonin 5-HT7, inhibition of ligand binding (1 μM)
T4 construct: expressed in transfected cells; host or cells: CHO cells
T4 sequence (P34969 whole entry): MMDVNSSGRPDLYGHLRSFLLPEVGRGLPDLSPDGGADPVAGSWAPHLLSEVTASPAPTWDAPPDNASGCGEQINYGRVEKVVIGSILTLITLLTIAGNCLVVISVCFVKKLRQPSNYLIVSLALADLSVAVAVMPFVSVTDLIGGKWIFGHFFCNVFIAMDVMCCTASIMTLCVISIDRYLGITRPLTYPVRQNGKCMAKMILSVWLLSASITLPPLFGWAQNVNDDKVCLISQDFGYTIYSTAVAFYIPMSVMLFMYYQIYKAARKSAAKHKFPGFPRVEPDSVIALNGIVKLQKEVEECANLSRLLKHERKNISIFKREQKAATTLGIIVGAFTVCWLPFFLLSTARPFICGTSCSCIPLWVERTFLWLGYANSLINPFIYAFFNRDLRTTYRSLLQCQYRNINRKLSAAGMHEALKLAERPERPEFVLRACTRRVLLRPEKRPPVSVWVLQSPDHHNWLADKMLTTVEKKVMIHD
Method: To evaluate in radioligand binding assays the activity of compounds of the invention, human recombinant serotonin (5-Hydroxytryptamine) 5-HT7 receptor expressed in Chinese hamster ovary (CHO) cells (Roth, B. L. et al., J. Pharmacol. Exp. Ther. 268:1403, 1994; Shen, Y. et al., J. Biol. Chem. 268:18200, 1993) in a modified Tris-HCl buffer (50 mM Tris-HCl, pH 7.4, 10 mM MgCl2, 0.5 mM EDTA) was used. Compounds of invention were incubated with 5.5 nM [^3H] Lysergic acid diethylamide (LSD) for 2 hours at 25° C. Non-specific binding was estimated in the presence of 10 μM Serotonin (5-HT). Receptor proteins were filtered and washed, the filters were then counted to determine [^3H]LSD specifically bound. Compounds were screened at 1 μM or lower, using 1% DMSO as vehicle. Biochemical assay results are presented as the percent inhibition of specific binding in Table 4.

Structure (SMILES) | Imidazoline I2 Central (1 μM), Percentage Inhibition [1] | inhibition at 0.03 µM ([2]; read-out: Serotonin 5-HT2B, inhibition of ligand binding (0.03 μM)) | inhibition at 0.3 µM ([2]; read-out: Serotonin 5-HT2B, inhibition of ligand binding (0.3 μM)) | inhibition at 1 µM [2] | inhibition at 1 µM [3] | inhibition at 1 µM [4] | inhibition at 0.003 µM ([5]; read-out: Serotonin 5-HT7, inhibition of ligand binding (3.0 nM)) | inhibition at 0.03 µM ([5]; read-out: Serotonin 5-HT7, inhibition of ligand binding (0.03 μM)) | inhibition at 1 µM [5]
Cc1ccc2c(c1)c1c(n2CCc2ccccc2)CC2CCC1N2C (stereo not shown) [Compound 2] | 70% | 37% | 88% | 71% | 86% | 82% | 38% | 81% | 98%
CN1C2CCC1c1c(n(CCC(=O)N3CCCC3)c3ccc(Cl)cc13)C2 (stereo not shown) [Compound 5] | 25% |  |  |  |  | 7% |  |  | 
CN1C2CCC1c1c(n(CCC(=O)N3CCOCC3)c3ccc(Cl)cc13)C2 (stereo not shown) [Compound 13] | −7% |  |  |  |  | 10% |  |  | 
CN1C2CCC1c1c(n(CCc3ccc(Cl)cc3)c3ccc(F)cc13)C2 (stereo not shown) [Compound 33] | 6% |  |  |  |  | 14% |  |  | 
CN1C2CCC1c1c(n(CCc3ccc(F)cc3)c3ccc(F)cc13)C2 (stereo not shown) [Compound 35] | 33% |  |  |  |  | 70% |  |  | 
Cc1ccc2c(c1)c1c(n2CCc2ccccc2)CC2CCCC1N2C (stereo not shown) [Compound 56] | 27% |  |  | -11% | 40% | 30% |  |  | 92%
CN1C2CCC1c1c(n(CCc3ccc(F)cc3)c3ccc(Cl)cc13)C2 (stereo not shown) [Compound 57] | 8% |  |  | 48% | 48% | 46% |  |  | 94%
CN1C2CCC1c1c(n(CCc3ccc(Cl)cc3)c3ccc(Cl)cc13)C2 (stereo not shown) [Compound 58] | 8% |  |  | 32% | 69% | 25% |  |  | 93%
CN1C2CCC1c1c(n(CC(=O)N3CCOCC3)c3ccc(Cl)cc13)C2 (stereo not shown) [Compound 59, 2-(2-chloro-11-methyl-5,6,7,8,9,10-Hexahydro-7,10-iminocyclohept[b]indol-5-yl)-1-morpholinoethanone] | −8% |  |  |  |  | 0% |  |  | 
CN1C2CCC1c1c(n(CC(=O)N3CCCC3)c3ccc(Cl)cc13)C2 (stereo not shown) [Compound 60] | 1% |  |  |  |  | 9% |  |  | 
Cc1ccc(CCn2c3c(c4cc(Cl)ccc42)C2CCC(C3)N2C)cc1 (stereo not shown) [Compound 61] | 22% |  |  |  |  | 41% |  |  | 
Cc1ccc2c(c1)c1c(n2CCc2ccc(F)cc2)CC2CCC1N2C (stereo not shown) [Compound 62] | 52% |  |  |  |  | 71% |  |  | 
